Laboratory results: publication PMC9230784, “Development of a Novel Class of Pyridazinone Derivatives as Selective MAO-B Inhibitors” (Molecules, 2022)
Entries after “also recorded” stand apart in the source; their conditions may differ. Where two headings read alike, the source gives them in different places.

Experiments:
Recombinant human MAO-A = molecular target: T1, Recombinant human MAO-A (Homo sapiens, UniProt P21397); experiment: biochemical; conditions: for remaining activity at 10 µM: 10 µM compound, mean ± standard error of duplicate or triple studies, read-out: Residual Activity at 10 µM (%) MAO-A
T1 construct: purchased Sigma-Aldrich (St. Louis, MO, USA)
T1 sequence (P21397 1-527): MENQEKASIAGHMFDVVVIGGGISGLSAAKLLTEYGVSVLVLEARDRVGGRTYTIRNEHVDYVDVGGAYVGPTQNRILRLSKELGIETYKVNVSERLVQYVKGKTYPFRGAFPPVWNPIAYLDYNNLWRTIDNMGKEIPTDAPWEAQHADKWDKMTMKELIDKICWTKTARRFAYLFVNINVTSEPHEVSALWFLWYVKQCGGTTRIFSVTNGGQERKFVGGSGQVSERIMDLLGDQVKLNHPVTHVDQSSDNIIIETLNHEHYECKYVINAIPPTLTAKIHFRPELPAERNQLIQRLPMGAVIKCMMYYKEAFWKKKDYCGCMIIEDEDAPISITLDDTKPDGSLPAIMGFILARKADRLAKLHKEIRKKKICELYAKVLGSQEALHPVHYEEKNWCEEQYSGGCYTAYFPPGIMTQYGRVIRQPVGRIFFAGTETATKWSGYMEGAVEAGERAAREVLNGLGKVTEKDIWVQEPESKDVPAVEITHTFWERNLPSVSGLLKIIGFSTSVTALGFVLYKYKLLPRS
Method: The IC50 values were determined by measuring the residual activity at different concentrations of the compounds and by using GraphPad Prism software 5.0. […] BACE1 inhibitory activities were tested by the BACE1 activity detection kit. The assay method was described previously. Recombinant human MAO-A and MAO-B, AChE from Electrophorus electricus, BChE from equine serum, BACE1, and their substrates and reference inhibitors were purchased from Sigma-Aldrich (St. Louis, MO, USA).
(§1) Lineweaver–Burk plots were used to examine the inhibition patterns, and secondary plots were used to calculate the Ki values with three inhibitor dosages.

MAO-B [1] = molecular target: T2, MAO-B (Homo sapiens, UniProt P27338); experiment: biochemical; type: biochemical; conditions: for remaining activity at 10 µM: 10 µM compound, mean ± standard error of duplicate or triple studies, read-out: Residual Activity at 10 µM (%) MAO-B; for SI (selectivity index for MAO-B compared with MAO-A): MAO-B versus MAO-A
T2 construct: purchased Sigma-Aldrich (St. Louis, MO, USA)
T2 sequence (P27338 1-520): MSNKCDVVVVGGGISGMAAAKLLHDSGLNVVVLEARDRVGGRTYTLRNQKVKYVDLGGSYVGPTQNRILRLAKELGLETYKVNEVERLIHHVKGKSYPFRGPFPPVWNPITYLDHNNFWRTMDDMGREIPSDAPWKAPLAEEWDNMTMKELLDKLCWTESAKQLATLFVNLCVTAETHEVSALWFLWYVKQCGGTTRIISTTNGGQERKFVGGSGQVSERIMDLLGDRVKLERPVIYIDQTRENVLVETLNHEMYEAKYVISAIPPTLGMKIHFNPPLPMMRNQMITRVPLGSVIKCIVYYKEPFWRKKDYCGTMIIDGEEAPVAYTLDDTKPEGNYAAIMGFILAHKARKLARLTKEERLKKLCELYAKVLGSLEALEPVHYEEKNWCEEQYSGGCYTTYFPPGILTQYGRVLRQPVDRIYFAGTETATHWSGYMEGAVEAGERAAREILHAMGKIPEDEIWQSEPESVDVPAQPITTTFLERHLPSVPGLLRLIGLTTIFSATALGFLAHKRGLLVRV
Method: The IC50 values were determined by measuring the residual activity at different concentrations of the compounds and by using GraphPad Prism software 5.0. […] BACE1 inhibitory activities were tested by the BACE1 activity detection kit. The assay method was described previously. Recombinant human MAO-A and MAO-B, AChE from Electrophorus electricus, BChE from equine serum, BACE1, and their substrates and reference inhibitors were purchased from Sigma-Aldrich (St. Louis, MO, USA). […]

[2] = for Prediction (BBB permeation class): PAMPA-BBB; for BBB permeation in words: PAMPA
MAO-B [3] = molecular target: T2, MAO-B; experiment: Kinetic study, Lineweaver–Burk and secondary plots; type: biochemical; conditions: for Inhibition type for MAO-B: Lineweaver–Burk plots
Text: Five different substrate concentrations were used in the kinetics.
as §1

MAO-B [4] = molecular target: T2, MAO-B; experiment: Inhibition reversibility by dialysis; type: biochemical; conditions: for Reversibility of MAO-B inhibition: dialysis, AU versus AD; for Relative activity of dialyzed (AD) sample / Relative activity of undialyzed (AU) sample: preincubation 30 min at ~2 × IC50
Text: The relative activity of undialyzed (AU) as well as dialyzed (AD) samples were compared to establish reversibility profiles.
To determine reversibility patterns, the activities of dialyzed (AD) and undialyzed (AU) specimens were compared.

in vitro = conditions: PAMPA
[5] = PAMPA-BBB; cited from earlier work
[6] = kynuramine 0.06 mM, highest concentration 40 µM, read-out: IC50 (µM) MAO-A
[7] = benzylamine 0.3 mM, highest concentration 40 µM, read-out: IC50 (µM) MAO-B

| SMILES | remaining activity at 10 µM (Recombinant human MAO-A) | IC50 (Recombinant human MAO-A; [6]) | remaining activity at 10 µM (MAO-B [1]) | SI (selectivity index for MAO-B compared with MAO-A) (MAO-B [1]) | IC50 (MAO-B [1]; [7]) | other results |
| --- | --- | --- | --- | --- | --- | --- |
| COc1cccc(N2CCN(c3ccc(=O)n(CC(=O)NN=Cc4ccc(F)cc4)n3)CC2)c1 [TR3] | 71.66 ± 0.71% | 19.7 ± 0.3 µM | 20.1 ± 1.15% | 9.31 | 2.11 ± 0.51 µM |  |
| O=C(Cn1nc(N2CCN(c3cccc(C(F)(F)F)c3)CC2)ccc1=O)NN=Cc1ccc(Br)cc1 [TR13] | 74.2 ± 6.43% | 31 ± 4.33 µM | 100 ± 5.43% | <0.78 | > 40 µM |  |
| COc1cccc(N2CCN(c3ccc(=O)n(CC(=O)NN=Cc4ccc(C)cc4)n3)CC2)c1 [TR5] | 72.8 ± 1.02% | 18.19 ± 0.09 µM | 45.6 ± 2.56% | 4.12 | 4.42 ± 0.23 µM |  |
| O=C(Cn1nc(N2CCOCC2)ccc1=O)NN=Cc1ccc(F)cc1 [TR15] | 85.6 ± 1.04% |  | 12.5 ± 3.54% |  |  | IC50 (Recombinant human MAO-A): > 40 µM; IC50 (MAO-B [1]): 0.43 ± 0.05 µM |
| O=C(Cn1nc(N2CCN(c3cccc(C(F)(F)F)c3)CC2)ccc1=O)NN=Cc1ccc(F)cc1 [TR9] | 72.28 ± 0.4% | 17.1 ± 0.21 µM | 46.5 ± 4.93% | 17.08 | 1 ± 0.15 µM |  |
| O=C(Cn1nc(N2CCOCC2)ccc1=O)NN=Cc1ccccc1 [TR14] | 97.47 ± 0.71% | > 40 µM | 107 ± 2.01% |  | > 40 µM |  |
| COc1ccc(C=NNC(=O)Cn2nc(N3CCN(c4cccc(C(F)(F)F)c4)CC3)ccc2=O)cc1 [TR10] | 56 ± 2.26% | 13.3 ± 1.81 µM | 91.9 ± 7.09% | <0.33 | > 40 µM |  |
| COc1cccc(N2CCN(c3ccc(=O)n(CC(=O)NN=Cc4ccc(Br)cc4)n3)CC2)c1 [TR6] | 51.7 ± 4.55% | 12.33 ± 0.11 µM | 70.2 ± 3.8% | 0.81 | 15.1 ± 0.18 µM |  |
| COc1ccc(C=NNC(=O)Cn2nc(N3CCN(c4cccc(OC)c4)CC3)ccc2=O)cc1 [TR4] | 61 ± 3.54% | 16.5 ± 1.66 µM | 88.6 ± 8.61% | <0.41 | > 40 µM |  |
| O=C(Cn1nc(N2CCN(c3cccc(C(F)(F)F)c3)CC2)ccc1=O)NN=Cc1ccc(Cl)cc1 [TR8] | 52.9 ± 0.82% | 12 ± 1.75 µM | 69.1 ± 0.95% | 0.60 | 20 µM |  |
| Cc1ccc(C=NNC(=O)Cn2nc(N3CCN(c4cccc(C(F)(F)F)c4)CC3)ccc2=O)cc1 [TR11] | 55.6 ± 2.28% | 18.5 ± 5.83 µM | 83.87 ± 0.56% | 0.57 | 32 ± 1.21 µM |  |
| CCn1cc(C(=O)O)c(=O)c2cc(F)c(N3CCNC(C)C3)c(F)c21 (stereo not shown) [Lomefloxacin, reference compound] |  |  |  |  |  | Prediction (BBB permeation class) [2]: CNS- (CNS-: Pe (10^−6 cm/s) <2, less BBB permeable) |
| COc1cccc(N2CCN(c3ccc(=O)n(CC(=O)NN=Cc4ccc(Cl)cc4)n3)CC2)c1 [TR2] | 65.8 ± 0.66% |  | -4.37 ± 4.13% |  |  | IC50 (Recombinant human MAO-A): 22.9 ± 0.24 µM; IC50 (MAO-B [1]): 0.27 ± 0.02 µM; Fold increase of MAO-B inhibitory potency compared to the basic structure TR1 (MAO-B [1]; versus TR1): 148.1 fold; Ki (MAO-B [3]): 0.23 ± 0.004 µM; Inhibition type for MAO-B (MAO-B [3]): competitive inhibitors; Reversibility of MAO-B inhibition (MAO-B [4]): reversible inhibitors; Relative activity of dialyzed (AD) sample (MAO-B [4]): 75.0%; Relative activity of undialyzed (AU) sample (MAO-B [4]): 28.0%; BBB permeation in words [2]: tendency to traverse the blood–brain barrier; also recorded: good CNS permeabilities; Prediction (BBB permeation class) [2]: CNS+ (CNS+, Pe (10^−6 cm/s) >4, good BBB permeable); Papp (in vitro): 9.33 ± 0.33 ×10⁻⁶ cm/s |
| O=C(Cn1nc(N2CCN(c3cccc(C(F)(F)F)c3)CC2)ccc1=O)NN=Cc1ccccc1 [TR7] | 55.4 ± 0.84% | 14.4 ± 3.55 µM | 90.7 ± 6.64% | <0.36 | > 40 µM |  |
| O=C(Cn1nc(N2CCOCC2)ccc1=O)NN=Cc1ccc(Cl)cc1 [TR16] | 85 ± 3.08% |  | 13.1 ± 0.64% |  |  | IC50 (Recombinant human MAO-A): > 40 µM; IC50 (MAO-B [1]): 0.17 ± 0.04 µM; Fold higher IC50 for MAO-B than TR2 (MAO-B [1]; versus TR2): 1.59 fold; Times higher MAO-B inhibitory activity over the basic structure TR14 (MAO-B [1]; versus TR14): 235.3 times; Times higher MAO-B inhibitory activity over TR15 (MAO-B [1]; versus TR15): 2.5 times; Ki (MAO-B [3]): 0.149 ± 0.016 µM; Inhibition type for MAO-B (MAO-B [3]): competitive inhibitors; Reversibility of MAO-B inhibition (MAO-B [4]): reversible inhibitors; Relative activity of dialyzed (AD) sample (MAO-B [4]): 73.4%; Relative activity of undialyzed (AU) sample (MAO-B [4]): 31.8%; BBB permeation in words [2]: tendency to traverse the blood–brain barrier; also recorded: good CNS permeabilities; Prediction (BBB permeation class) [2]: CNS+ (CNS+, Pe (10^−6 cm/s) >4, good BBB permeable); Papp (in vitro): 10.6 ± 0.26 ×10⁻⁶ cm/s |
| NCCc1ccc(O)c(O)c1 [Dopamine, reference compound] |  |  |  |  |  | Prediction (BBB permeation class) [2]: CNS- (CNS-: Pe (10^−6 cm/s) <2, less BBB permeable); Bibliography Pe (×10^−6 cm/s) [5]: 0.2 ×10^−6 cm/s |
| COc1cccc(N2CCN(c3ccc(=O)n(CC(=O)NN=Cc4ccccc4)n3)CC2)c1 [TR1] | 82 ± 1.2% | 17.3 ± 1.2 µM | 80.5 ± 1.01% | <0.43 | > 40 µM |  |
| CN(C)c1ccc(C=NNC(=O)Cn2nc(N3CCN(c4cccc(C(F)(F)F)c4)CC3)ccc2=O)cc1 [TR12] | 52.5 ± 1.77% | 14.7 ± 2.96 µM | 85.3 ± 1.59% | <0.37 | > 40 µM |  |
| CC(=O)[C@H]1CC[C@H]2[C@@H]3CCC4=CC(=O)CC[C@]4(C)[C@H]3CC[C@]12C [Progesterone, reference compound] |  |  |  |  |  | Prediction (BBB permeation class) [2]: CNS+ (CNS+, Pe (10^−6 cm/s) >4, good BBB permeable) |
